Measured values from ChEMBL document CHEMBL1201862, “PubChem BioAssay data set” (2004).
The source made the active and inactive calls.

Columns and labels:
[1] = target: T1, Corticotropin-releasing factor receptor 2/Corticotropin-releasing factor-binding protein (Homo sapiens, UniProt P24387+Q13324); test: activators of CRF receptor 2 with binding protein – uHTS hits, confirmation (AID 602473); format: functional; details: read-out: EC50_Mean
T1 sequence (Q13324 whole entry): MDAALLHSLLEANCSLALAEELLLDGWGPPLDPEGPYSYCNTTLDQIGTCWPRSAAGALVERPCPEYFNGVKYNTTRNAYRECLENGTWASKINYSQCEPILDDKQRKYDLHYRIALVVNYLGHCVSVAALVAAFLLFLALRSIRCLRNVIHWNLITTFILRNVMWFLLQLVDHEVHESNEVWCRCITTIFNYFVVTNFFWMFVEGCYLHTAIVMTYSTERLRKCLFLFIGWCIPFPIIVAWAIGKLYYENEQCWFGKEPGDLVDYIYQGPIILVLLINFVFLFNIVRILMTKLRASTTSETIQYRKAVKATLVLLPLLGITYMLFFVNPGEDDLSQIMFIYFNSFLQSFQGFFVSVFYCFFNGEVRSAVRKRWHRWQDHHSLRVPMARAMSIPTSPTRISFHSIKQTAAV
T1 sequence (P24387 whole entry): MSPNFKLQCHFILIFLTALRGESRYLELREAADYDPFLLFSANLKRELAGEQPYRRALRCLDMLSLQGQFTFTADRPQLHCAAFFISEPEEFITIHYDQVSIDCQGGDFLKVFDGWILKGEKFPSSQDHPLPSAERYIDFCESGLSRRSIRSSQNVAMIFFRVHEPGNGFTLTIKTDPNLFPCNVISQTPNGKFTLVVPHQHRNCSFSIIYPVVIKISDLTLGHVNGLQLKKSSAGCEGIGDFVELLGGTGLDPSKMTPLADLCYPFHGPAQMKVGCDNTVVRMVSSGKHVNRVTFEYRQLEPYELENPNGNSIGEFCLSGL

[2] = target: FAD-linked sulfhydryl oxidase ALR (Homo sapiens, UniProt P55789); test: inhibitors of human ALR sulfhydryl oxidase, dose response, biochemical, H2O2 detection, luminescence, cherry-pick (AID 493248)
[3] = target: T1, Corticotropin-releasing factor receptor 2/Corticotropin-releasing factor-binding protein; test: Dose Response confirmation of uHTS hits for small molecule antagonists of the CRF-binding protein and CRF-R2 receptor complex.; format: functional; details: read-out: IC50_Mean
[4] = HIV-1 Env-mediated cell fusion inhibitors, dose response, CCR5-tropic Env (AID 2279); format: functional
[5] = target: T2, Long-chain-fatty-acid--AMP ligase FadD28 (Mycobacterium tuberculosis, UniProt P9WQ59); test: Fluorescence polarization aasay to screen for inhibitors that compete for the binding of FadD28 to a bisubstrate Measured in Biochemical System Using Plate Reader - 2147-01_Inhibitor_Dose_CherryPick_Activity.; format: functional, Mycobacterium tuberculosis H37Rv
T2 sequence (P9WQ59 whole entry): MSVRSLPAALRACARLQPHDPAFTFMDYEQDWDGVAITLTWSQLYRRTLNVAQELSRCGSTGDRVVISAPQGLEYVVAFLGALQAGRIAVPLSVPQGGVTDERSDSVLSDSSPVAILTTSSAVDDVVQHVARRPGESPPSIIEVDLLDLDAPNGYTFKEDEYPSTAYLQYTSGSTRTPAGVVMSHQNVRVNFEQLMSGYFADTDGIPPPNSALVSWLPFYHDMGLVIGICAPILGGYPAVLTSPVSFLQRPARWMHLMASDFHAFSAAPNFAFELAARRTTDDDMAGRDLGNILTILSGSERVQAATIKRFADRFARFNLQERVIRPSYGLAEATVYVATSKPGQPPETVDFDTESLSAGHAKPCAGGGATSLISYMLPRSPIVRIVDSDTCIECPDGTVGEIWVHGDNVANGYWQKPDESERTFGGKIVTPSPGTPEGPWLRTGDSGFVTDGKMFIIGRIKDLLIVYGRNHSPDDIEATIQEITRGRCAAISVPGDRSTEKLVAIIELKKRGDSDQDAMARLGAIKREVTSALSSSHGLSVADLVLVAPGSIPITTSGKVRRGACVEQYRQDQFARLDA

[6] = CRF-BP/CRF-R2 complex antagonists, dose response, cell-based, uHTS hits, 384-well (AID 651639); format: functional, Homo sapiens; details: read-out: IC50_Mean
[7] = Counterscreen for IDE inhibitors: Luminescence-based cell-based high throughput dose response assay to identify compounds that are cytotoxic to HEK cells. [Related pubchem assays: 434962 (Primary screen (IDE inhibitors in singlicate)), 449730 (Counterscreen (Cytotoxicity in triplicate)), 435028 (Confirmation (IDE inhibitors in triplicate)) …; format: functional; details: HEK293
Insulin-degrading enzyme = target: T3, Insulin-degrading enzyme (Homo sapiens, UniProt P14735); test: Dose Response: Fluorescence polarization-based cell-based high throughput dose response assay for inhibitors of insulin-degrading enzyme (IDE). [Related pubchem assays: 434962 (Primary screen (IDE inhibitors in singlicate)), 449730 (Counterscreen (Cytotoxicity in triplicate)), 435028 (Confirmation (IDE inhibitors in triplicate)), 434984 (Summary …; format: functional
T3 sequence (P14735 whole entry): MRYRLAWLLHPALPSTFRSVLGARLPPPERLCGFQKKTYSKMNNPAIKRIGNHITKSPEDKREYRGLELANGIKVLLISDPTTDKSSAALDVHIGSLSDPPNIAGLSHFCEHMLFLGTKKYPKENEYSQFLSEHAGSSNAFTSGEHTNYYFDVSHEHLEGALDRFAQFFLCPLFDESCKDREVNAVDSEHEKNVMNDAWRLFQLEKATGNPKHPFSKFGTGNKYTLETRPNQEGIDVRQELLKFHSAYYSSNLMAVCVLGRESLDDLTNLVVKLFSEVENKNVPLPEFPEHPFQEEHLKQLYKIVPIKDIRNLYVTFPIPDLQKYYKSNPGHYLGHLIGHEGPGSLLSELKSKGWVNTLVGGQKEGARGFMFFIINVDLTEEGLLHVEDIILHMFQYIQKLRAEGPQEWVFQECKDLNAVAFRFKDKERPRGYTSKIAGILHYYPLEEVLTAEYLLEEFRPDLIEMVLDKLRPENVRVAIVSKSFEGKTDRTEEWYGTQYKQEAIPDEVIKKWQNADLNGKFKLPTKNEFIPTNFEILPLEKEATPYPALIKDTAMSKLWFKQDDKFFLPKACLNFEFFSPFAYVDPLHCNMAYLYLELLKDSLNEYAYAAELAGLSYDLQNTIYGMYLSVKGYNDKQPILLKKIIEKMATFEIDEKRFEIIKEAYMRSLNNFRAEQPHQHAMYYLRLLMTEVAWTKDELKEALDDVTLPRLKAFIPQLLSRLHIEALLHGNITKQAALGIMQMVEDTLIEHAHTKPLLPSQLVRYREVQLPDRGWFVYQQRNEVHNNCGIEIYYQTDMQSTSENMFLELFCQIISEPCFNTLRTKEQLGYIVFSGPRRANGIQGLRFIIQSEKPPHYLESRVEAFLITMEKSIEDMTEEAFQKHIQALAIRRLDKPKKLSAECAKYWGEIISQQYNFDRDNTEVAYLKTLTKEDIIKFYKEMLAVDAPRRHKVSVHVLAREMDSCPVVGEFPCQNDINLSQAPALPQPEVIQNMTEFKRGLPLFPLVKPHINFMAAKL

SUMO-activating enzyme [8] = target: T4, SUMO-activating enzyme (Homo sapiens, UniProt Q9UBT2); test: inhibitors of in vitro SUMOylation cascade, primary screen, biochemical, HTRF, uHTS (AID 2006); format: protein-complex assay
SUMO-activating enzyme [9] = target: T4, SUMO-activating enzyme; test: SUMOylation inhibitor hit validation, confirmation, SUMOylation inhibitor project, biochemical, AlphaScreen (AID 2018); format: functional
Troponin, cardiac muscle = Troponin, cardiac muscle (Homo sapiens, UniProt P19429+P45379+P63316); test: Fluorescence-based biochemical high throughput dose response assay for activators of the calcium sensitivity of cardiac Regulated Thin Filaments (RTF). [Related pubchem assays (depositor defined):AID493008, AID493018, AID504382, AID504383]; format: protein-complex assay
[10] = target: G-protein coupled receptor 55 (Homo sapiens, UniProt Q9Y2T6); test: GPR55 antagonists blocking LPI-driven arrestin recruitment, primary screen, imaging, U2OS, beta-arrestin-GFP, LPI agonist (AID 2013); format: functional;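 also: antagonist potency measured as reduced agonist-driven arrestin aggregation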
[11] = target: T5, Ubiquitin-conjugating enzyme E2 N (Homo sapiens, UniProt P61088); format: functional
T5 sequence (P61088 whole entry): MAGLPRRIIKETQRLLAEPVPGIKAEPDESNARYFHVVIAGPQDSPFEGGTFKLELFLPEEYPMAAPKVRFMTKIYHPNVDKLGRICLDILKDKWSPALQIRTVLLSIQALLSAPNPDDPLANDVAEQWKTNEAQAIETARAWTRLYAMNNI

Bcl-2-related protein A1 = target: T6, Bcl-2-related protein A1 (Mus musculus, UniProt Q07440); format: functional;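 also: confirmatory dose–response counterscreen on Bfl-1, used to check hits from a UBC13 polyubiquitin inhibitor campaign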
T6 sequence (Q07440 whole entry): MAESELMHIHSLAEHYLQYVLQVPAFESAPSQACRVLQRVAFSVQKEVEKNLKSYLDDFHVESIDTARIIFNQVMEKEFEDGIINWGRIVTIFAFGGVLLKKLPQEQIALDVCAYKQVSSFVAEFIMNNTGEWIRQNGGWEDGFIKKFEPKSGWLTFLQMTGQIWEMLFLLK

[12] = target: T5, Ubiquitin-conjugating enzyme E2 N; format: functional; remark: listed apart in the source
[13] = tested on: Streptococcus sp. 'group A'; test: growth inhibition of control SK(-) GAS strain, dose response, counter-screen for streptokinase expression inhibitor project, luminescence, kanamycin, BacTiterGlo, confirmation (AID 1900); format: functional, organism-based
Streptokinase A = target: T7, Streptokinase A (Streptococcus pyogenes serotype M1, UniProt P10520); test: S. pyogenes streptokinase expression inhibitors, potency, dose response, plasminogen activation absorbance, OD405 (AID 1914); format: functional, Streptococcus pyogenes M1 GAS;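 also: secreted streptokinase activity via plasminogen activation per viability signal from cell pellet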
T7 sequence (P10520 whole entry): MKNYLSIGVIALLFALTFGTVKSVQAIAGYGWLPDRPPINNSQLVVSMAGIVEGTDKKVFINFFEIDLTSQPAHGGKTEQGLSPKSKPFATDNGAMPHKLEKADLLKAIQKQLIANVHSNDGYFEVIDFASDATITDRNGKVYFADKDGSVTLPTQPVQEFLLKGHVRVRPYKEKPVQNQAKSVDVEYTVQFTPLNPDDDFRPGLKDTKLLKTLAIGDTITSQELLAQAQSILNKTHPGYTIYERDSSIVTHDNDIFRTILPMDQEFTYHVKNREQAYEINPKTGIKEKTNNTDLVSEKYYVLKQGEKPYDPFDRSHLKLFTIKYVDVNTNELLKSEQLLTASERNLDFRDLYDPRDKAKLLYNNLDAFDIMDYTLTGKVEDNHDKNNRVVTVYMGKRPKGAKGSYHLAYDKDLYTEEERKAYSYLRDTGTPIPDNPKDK

Streptococcus = test: Group A Streptococcus viability loss, dose response, counter-screen for streptokinase expression inhibitor project, luminescence, BacTiterGlo (AID 1915); format: functional, organism-based;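 also: potency for reduction of bacterial viability or growth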

T4 sequence (Q9UBE0 whole entry): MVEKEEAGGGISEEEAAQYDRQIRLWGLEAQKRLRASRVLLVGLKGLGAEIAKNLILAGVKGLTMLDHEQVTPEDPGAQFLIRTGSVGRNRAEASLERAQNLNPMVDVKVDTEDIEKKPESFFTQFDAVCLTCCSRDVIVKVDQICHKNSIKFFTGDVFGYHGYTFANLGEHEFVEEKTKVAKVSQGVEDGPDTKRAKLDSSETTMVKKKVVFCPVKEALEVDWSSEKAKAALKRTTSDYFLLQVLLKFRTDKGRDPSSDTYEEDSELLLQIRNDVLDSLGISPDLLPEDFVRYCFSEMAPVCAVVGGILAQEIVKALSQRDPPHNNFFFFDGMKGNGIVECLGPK
T4 sequence (Q9UBT2 whole entry): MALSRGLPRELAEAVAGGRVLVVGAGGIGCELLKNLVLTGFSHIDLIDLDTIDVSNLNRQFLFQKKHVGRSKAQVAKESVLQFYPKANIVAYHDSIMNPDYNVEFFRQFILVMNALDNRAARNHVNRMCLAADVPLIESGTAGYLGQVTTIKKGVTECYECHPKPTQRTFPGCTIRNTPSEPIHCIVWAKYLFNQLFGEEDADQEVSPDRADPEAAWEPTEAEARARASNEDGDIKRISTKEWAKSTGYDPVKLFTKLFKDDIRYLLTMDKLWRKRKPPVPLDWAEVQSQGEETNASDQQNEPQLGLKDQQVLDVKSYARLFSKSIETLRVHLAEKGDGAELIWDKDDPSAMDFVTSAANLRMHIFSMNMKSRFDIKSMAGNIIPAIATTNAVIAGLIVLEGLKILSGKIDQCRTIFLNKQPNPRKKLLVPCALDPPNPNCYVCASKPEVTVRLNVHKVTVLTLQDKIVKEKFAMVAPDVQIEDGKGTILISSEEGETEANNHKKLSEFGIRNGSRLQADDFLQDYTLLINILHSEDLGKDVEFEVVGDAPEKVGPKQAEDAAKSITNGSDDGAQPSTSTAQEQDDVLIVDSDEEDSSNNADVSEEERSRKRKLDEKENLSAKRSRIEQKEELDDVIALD
Sequence of G-protein coupled receptor 55 (Q9Y2T6 whole entry): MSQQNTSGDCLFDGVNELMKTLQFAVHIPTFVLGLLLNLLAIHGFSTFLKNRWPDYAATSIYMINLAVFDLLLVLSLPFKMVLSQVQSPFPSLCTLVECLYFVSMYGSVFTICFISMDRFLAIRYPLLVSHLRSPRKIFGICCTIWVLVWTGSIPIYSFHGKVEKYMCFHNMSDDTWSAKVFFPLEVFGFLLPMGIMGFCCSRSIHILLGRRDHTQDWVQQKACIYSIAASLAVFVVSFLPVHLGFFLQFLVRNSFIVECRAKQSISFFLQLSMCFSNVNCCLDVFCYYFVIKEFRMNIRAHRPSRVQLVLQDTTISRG
Sequence of FAD-linked sulfhydryl oxidase ALR (P55789 whole entry): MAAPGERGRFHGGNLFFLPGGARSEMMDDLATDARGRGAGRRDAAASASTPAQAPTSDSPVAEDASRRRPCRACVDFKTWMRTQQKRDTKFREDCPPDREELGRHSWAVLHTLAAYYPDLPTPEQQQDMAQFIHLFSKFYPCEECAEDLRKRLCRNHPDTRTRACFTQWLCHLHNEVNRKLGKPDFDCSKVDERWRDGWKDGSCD

In the case of `O=C(O)c1ccccc1NC(=O)c1ccccc1Nc1ccccc1`, the EC50 [1] is reported as > 53 µM (inactive), the AC50 [2] is reported as 9.47 µM (active) and the IC50 [3] is reported as 5.46 µM (active). For the same compound, the IC50 [4] was > 50 µM (active), the AC50 [5] was > 100 µM (inactive) and the IC50 [6] was > 20 µM (inactive).

For `COc1ccccc1N1CCN(C(=O)c2cc(N3C(=O)C4C5CCC(C5)C4C3=O)ccc2Cl)CC1` (stereo unspecified), the IC50 [7] was 27.8 µM (not active) and the IC50 (Insulin-degrading enzyme) was > 55.9 µM (not active).

With `CCOC(=O)C1=C(C)N=c2s/c(=C\c3ccc(OCC(=O)O)cc3)c(=O)n2C1c1ccc(OC(C)C)cc1` (stereo unspecified) the IC50 (SUMO-activating enzyme [8]) was 26 µM (active), the IC50 [4] was 35.2 µM (active) and the IC50 (SUMO-activating enzyme [9]) was 10.1 µM (active).

With `CCN(CC)c1ccc(/C=c2\sc3nnc(-c4ccccc4Cl)n3c2=O)cc1` the EC50 (Troponin, cardiac muscle) was 0.191 µM (active).

With `COc1cc(Br)c(-c2sc(Nc3ccccc3)n[n+]2-c2ccc(F)cc2)cc1OC` the IC50 [10] was 11.9 µM (inactive).

For `O=C(CCNC(=O)c1ccccc1Cl)Nc1nc2ccccc2s1`, the IC50 [11] was 6.15 µM (active), the IC50 (Bcl-2-related protein A1) was > 20 µM (inactive) and the IC50 [12] was 8.02 µM (active).

For `Cc1cc(/C=C2\SC(=S)N(C)C2=O)c(C)n1-c1ccccc1O`, the EC50 (Troponin, cardiac muscle) was 4.96 µM (active), the EC50 [13] was 8.37 µM (active) and the EC50 (Streptokinase A) was 17.8 µM (active). For the same compound, the EC50 (Streptococcus) was 16.1 µM (active).

With `CCn1cc(C(=O)NCCC(=O)NCCO)c(=O)c2cc3c(cc21)OCO3` the EC50 (Troponin, cardiac muscle) was > 71.4 µM (inactive).
